Test results published in US20250276983A1, “COMPOUNDS AND METHODS FOR MODULATING HER2” (IAMBIC THERAPEUTICS, INC., priority 2022, published 2025).
Like-named read-outs stand apart in the source and are kept apart here.

Experiments:
[1] = molecular target: wtEGFR (Homo sapiens (Human), UniProt P00533); test: HotSpot radiometric kinase activity assay, wtEGFR; type: biochemical; details: 4 nM wtEGFR, 10 μM 33P-ATP, 20 min preincubation, 2 hours, read-out: EGFR WT IC50
Experimental: (§1) The purpose of the wtERBB2, ERBB2-A775_G776insYVMA (ERBB2YVMA), wtEGFR biochemical assay was to evaluate the inhibition (% inhibition and IC50 values) of the small molecule inhibitors by using the “HotSpot” radiometric kinase activity assay. HotSpot assays monitor the […] of kinase substrate by the radioactive gamma phosphate of adenosine triphosphate (33P-ATP) during biochemical reactions. HotSpot assays was performed in steps upon completion of the kinase reaction: deposition of a reaction mixture aliquot onto P81 ion exchange paper, extensive washing of the aforementioned P81 paper using phosphoric acid to remove unbound radiolabeled 33P-ATP from the P81 paper, and finally visualization and quantification of the dried P81 paper utilizing a phosphoimager. […] Typical reaction solutions (10 μL final reaction volume) contained the following buffer conditions: 20 mM Hepes (pH 7.5), 10 mM MgCl2, 1 mM EGTA, 0.01% Brij35, 0.02 mg/mL BSA, 0.1 mM Na3VO4, 2 mM DTT, 1% DMSO. The assay was primed by preparing a fresh 0.2 mg/mL solution of pEY (Sigma Cat: P7244) substrate in the reaction buffer and supplementing that solution with […] of MnCl2 as substrate cofactor (Sigma Cat: M9522). The kinase of interest was then added to the solution at the appropriate concentration (30 nM wtERBB2 from, or 20 nM ERBB2YVMA, or 4 nM wtEGFR) and gently mixed prior to delivery of compound in 100% DMSO by acoustic dispensing (Beckman Echo550). Compound, Kinase, and substrate were allowed to incubate for 20 min at room temperature prior to the initiation of the reaction by addition of 33P-ATP (PerkinElmer Cat: NEG602, final conc 10 μM). […] IC50 determinations were made from a plot of kinase activity as a function of inhibitor concentration fit to the 4-parameter IC50 equation with the enzyme concentration held constant using GraphPad Prism (San Diego).

[2] = molecular target: wtERBB2 (Homo sapiens (Human), UniProt P04626); test: HotSpot radiometric kinase activity assay, wtERBB2; type: biochemical; details: 30 nM wtERBB2, 10 μM 33P-ATP, 20 min preincubation, 2 hours, read-out: HER2 WT IC50
Sequence of wtERBB2 (P04626 23-1255): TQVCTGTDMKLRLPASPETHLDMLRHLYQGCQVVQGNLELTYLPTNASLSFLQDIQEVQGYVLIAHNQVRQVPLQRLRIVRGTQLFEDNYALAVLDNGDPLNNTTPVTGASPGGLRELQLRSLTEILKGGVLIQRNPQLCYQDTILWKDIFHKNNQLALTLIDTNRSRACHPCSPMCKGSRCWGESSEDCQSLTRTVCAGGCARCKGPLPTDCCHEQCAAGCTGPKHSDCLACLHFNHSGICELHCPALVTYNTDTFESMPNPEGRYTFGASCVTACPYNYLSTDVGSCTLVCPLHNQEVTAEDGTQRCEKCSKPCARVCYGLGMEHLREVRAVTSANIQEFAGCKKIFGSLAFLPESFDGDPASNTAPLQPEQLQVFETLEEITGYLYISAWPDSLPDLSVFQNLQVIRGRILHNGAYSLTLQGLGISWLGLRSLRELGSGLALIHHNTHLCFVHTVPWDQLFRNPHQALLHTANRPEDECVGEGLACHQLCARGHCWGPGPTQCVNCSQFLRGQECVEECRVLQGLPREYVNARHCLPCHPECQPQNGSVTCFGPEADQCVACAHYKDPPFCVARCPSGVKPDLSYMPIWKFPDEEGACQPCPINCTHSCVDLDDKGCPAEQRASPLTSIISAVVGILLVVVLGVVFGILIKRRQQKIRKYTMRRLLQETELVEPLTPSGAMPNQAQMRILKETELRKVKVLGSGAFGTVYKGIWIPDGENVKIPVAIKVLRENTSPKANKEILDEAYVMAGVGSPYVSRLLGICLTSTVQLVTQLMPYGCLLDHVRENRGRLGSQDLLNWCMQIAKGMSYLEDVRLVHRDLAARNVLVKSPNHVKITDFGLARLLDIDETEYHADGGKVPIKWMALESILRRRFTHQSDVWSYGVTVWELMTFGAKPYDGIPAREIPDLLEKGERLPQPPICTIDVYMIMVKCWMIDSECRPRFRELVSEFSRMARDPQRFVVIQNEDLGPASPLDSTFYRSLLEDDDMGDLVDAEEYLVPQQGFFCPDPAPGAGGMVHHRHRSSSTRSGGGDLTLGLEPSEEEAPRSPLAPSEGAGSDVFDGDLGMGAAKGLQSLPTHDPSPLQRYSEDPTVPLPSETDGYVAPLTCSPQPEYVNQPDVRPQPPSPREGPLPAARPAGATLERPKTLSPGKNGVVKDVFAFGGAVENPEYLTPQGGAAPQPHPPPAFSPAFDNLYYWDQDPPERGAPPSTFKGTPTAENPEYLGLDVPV
Experimental: as §1

[3] = tested on: BaF3_EGFRWT cells; test: Cell growth inhibition assay, BaF3_EGFRWT; type: cell-based; details: 72 h, 80 ng/mL recombinant human EGF, 3 days treatment, CellTiterGlo 2.0, read-out: EGFR WT IC50 (nM), cell growth inhibition
[4] = tested on: BaF3_HER2WT cells; test: Cell growth inhibition assay, BaF3_HER2WT; type: cell-based; details: 72 h, 3 days treatment, CellTiterGlo 2.0, read-out: HER2 WT IC50 (nM), cell growth inhibition
[5] = tested on: BaF3_HER2YVMA cells; test: Cell growth inhibition assay, BaF3_HER2YVMA; type: cell-based; details: 72 h, read-out: HER2-YVMA IC50 (nM), cell growth inhibition
[6] = BaF3_HER2YVMA cells, 3 days treatment, CellTiterGlo 2.0

Sequence of wtEGFR (P00533 25-1210): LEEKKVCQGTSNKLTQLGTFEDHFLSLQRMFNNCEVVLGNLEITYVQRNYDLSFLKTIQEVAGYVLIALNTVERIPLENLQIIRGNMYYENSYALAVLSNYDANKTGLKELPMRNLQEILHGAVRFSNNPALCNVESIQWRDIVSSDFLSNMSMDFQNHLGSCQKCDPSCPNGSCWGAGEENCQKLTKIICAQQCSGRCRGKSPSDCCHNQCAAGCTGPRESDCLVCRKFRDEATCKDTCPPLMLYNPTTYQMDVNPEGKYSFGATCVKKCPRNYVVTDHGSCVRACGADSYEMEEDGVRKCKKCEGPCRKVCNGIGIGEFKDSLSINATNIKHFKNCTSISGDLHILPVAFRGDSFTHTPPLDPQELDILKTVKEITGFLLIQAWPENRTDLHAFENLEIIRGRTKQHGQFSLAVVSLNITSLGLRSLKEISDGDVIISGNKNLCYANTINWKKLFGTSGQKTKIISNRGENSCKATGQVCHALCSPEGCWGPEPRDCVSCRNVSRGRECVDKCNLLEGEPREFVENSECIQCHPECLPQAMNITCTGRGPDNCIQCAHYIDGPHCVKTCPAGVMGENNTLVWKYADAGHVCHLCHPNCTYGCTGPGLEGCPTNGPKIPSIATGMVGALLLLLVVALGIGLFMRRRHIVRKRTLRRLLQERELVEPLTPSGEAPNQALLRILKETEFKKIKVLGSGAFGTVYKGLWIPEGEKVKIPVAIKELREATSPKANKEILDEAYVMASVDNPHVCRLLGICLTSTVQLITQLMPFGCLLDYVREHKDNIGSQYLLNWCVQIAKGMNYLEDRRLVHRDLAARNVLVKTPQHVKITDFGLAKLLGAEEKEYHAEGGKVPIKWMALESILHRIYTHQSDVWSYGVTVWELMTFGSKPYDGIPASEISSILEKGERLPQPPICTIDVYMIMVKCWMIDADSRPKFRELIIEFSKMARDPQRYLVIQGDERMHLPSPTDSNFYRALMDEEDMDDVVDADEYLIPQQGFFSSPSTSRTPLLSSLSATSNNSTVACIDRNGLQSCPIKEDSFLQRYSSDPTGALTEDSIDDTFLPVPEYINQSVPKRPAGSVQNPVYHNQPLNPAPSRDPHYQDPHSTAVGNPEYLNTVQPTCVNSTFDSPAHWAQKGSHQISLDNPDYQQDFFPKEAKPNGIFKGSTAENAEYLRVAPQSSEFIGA

Structure (SMILES)	IC50 [1] [nM]	IC50 [2] [nM]	IC50 [3] [nM]	IC50 [4] [nM]	IC50 [5] [nM]	IC50 [5, 6] [nM]
Cc1cc(Nc2ncnn3ccc(C4CN(C(=O)/C=C/CN5CCCC5)C4)c23)ccc1Oc1ccn2ncnc2c1 [Example 97, (E)-1-(3-(4-((4-([1,2,4]triazolo[1,5-a]pyridin-7-yloxy)-3-methylphenyl)amino)pyrrolo[2,1-f][1,2,4]triazin-5-yl)azetidin-1-yl)-4-(pyrrolidin-1-yl)but-2-en-1-one]	< 200	< 200	1500 to 5000	< 200	< 200	
Cc1cc(Nc2ncnn3ccc(C4CN(C(=O)/C=C/CN(C)C)C4)c23)ccc1Oc1ccc2c(c1)ncn2C [Example 101, (E)-4-(dimethylamino)-1-(3-(4-((3-methyl-4-((1-methyl-1H-benzo[d]imidazol-5-yl)oxy)phenyl)amino)pyrrolo[2,1-f][1,2,4]triazin-5-yl)azetidin-1-yl)but-2-en-1-one]	< 200	< 200	1500 to 5000	< 200		< 200
Cc1cc(Nc2ncnn3ccc(C4CCN(C(=O)/C=C/CN(C)C)C4)c23)ccc1Oc1ccn2ncnc2c1 (stereo not shown) [Example 98, (E)-1-(3-(4-((4-([1,2,4]triazolo[1,5-a]pyridin-7-yloxy)-3-methylphenyl)amino)-pyrrolo-[2,1-f][1,2,4]triazin-5-yl)pyrrolidin-1-yl)-4-(dimethylamino)but-2-en-1-one]	< 200	< 200	1500 to 5000	< 200		200 to 500
C=CC(=O)N1CC(c2ccn(-c3ccn4ncnc(Nc5ccc(Oc6ccn7ncnc7c6)c(C)c5)c34)n2)C1 [Example 10, 1-(3-(1-(4-((4-([1,2,4]triazolo[1,5-a]pyridin-7-yloxy)-3-methylphenyl)amino)pyrrolo[2,1-f][1,2,4]triazin-5-yl)-1H-pyrazol-3-yl)azetidin-1-yl)prop-2-en-1-one]	< 200	< 200	1500 to 5000	200 to 500		500 to 1500
C=CC(=O)N1CCC(c2ccn3ncnc(Nc4ccc(Oc5ccn6ncnc6c5)c(C)c4)c23)CC1 [Example 7, 1-(4-(4-((4-([1,2,4]triazolo[1,5-a]pyridin-7-yloxy)-3-methylphenyl)amino)pyrrolo[2,1-f][1,2,4]triazin-5-yl)piperidin-1-yl)prop-2-en-1-one]	< 200	< 200	200 to 500	< 200		< 200
C=CC(=O)N1CCCN(c2ccn3ncnc(Nc4ccc(Oc5ccn6ncnc6c5)c(C)c4)c23)CC1 [Example 8, 1-(4-(4-((4-([1,2,4]triazolo[1,5-a]pyridin-7-yloxy)-3-methylphenyl)amino)pyrrolo[2,1-f][1,2,4]triazin-5-yl)-1,4-diazepan-1-yl)prop-2-en-1-one]	< 200	< 200	500 to 1500	< 200		< 200
Cc1cc(Nc2ncnn3ccc(C4CN(C(=O)/C=C/CN(C)C)C4)c23)ccc1Oc1ccn2ncnc2c1 [Example 1, (E)-1-(3-(4-((4-([1,2,4]triazolo[1,5-a]pyridin-7-yloxy)-3-methylphenyl)amino)pyrrolo[2,1-f][1,2,4]triazin-5-yl)azetidin-1-yl)-4-(dimethylamino)but-2-en-1-one]	< 200	< 200	1500 to 5000	< 200		< 200
C=CC(=O)N1CCC(c2ccn3ncnc(Nc4ccc(Oc5ccc6c(c5)ncn6C)c(C)c4)c23)CC1 [Example 113, 1-(4-(4-((3-methyl-4-((1-methyl-1H-benzo[d]imidazol-5-yl)oxy)phenyl)amino)pyrrolo[2,1-f][1,2,4]triazin-5-yl)piperidin-1-yl)prop-2-en-1-one]	< 200	< 200	500 to 1500	< 200		< 200
C=CC(=O)N1CCN(c2ccn3ncnc(Nc4ccc(Oc5ccn6ncnc6c5)c(C)c4)c23)CC1 [Example 6, 1-(4-(4-((4-([1,2,4]triazolo[1,5-a]pyridin-7-yloxy)-3-methylphenyl)amino)pyrrolo[2,1-f][1,2,4]triazin-5-yl)piperazin-1-yl)prop-2-en-1-one]	< 200	< 200	500 to 1500	< 200		< 200
C=CC(=O)N1CC(n2cc(-c3ccn4ncnc(Nc5ccc(Oc6ccn7ncnc7c6)c(C)c5)c34)cn2)C1 [Example 2, 1-(3-(4-(4-((4-([1,2,4]triazolo[1,5-a]pyridin-7-yloxy)-3-methylphenyl)amino)pyrrolo[2,1-f][1,2,4]triazin-5-yl)-1H-pyrazol-1-yl)azetidin-1-yl)prop-2-en-1-one]	< 200	< 200	1500 to 5000	< 200		< 200
Cc1cc(Nc2ncnn3ccc(C4CN(C(=O)/C=C/CN5CCCCC5)C4)c23)ccc1Oc1ccn2ncnc2c1 [Example 94, (E)-1-(3-(4-((4-([1,2,4]triazolo[1,5-a]pyridin-7-yloxy)-3-methylphenyl)amino)pyrrolo[2,1-f][1,2,4]triazin-5-yl)azetidin-1-yl)-4-(piperidin-1-yl)but-2-en-1-one]	< 200	< 200	1500 to 5000	< 200		< 200
